Measured values reported in US11717508B2, “Compounds, compositions, and methods for inhibiting bacterial growth” (priority 2016, dated 2023).
Several values for one entry are separate records, joined by “and”; a condition that tells them apart may be missing. Identical values can stand only once. Like-named read-outs stand apart in the source and are kept apart here.

Assays:
DosRST regulon = format: cell-based; settings: 40 μM, 6 days, >2-fold, p<0.05
CDC1551(ΔdosR) mutant = format: cell-based; settings: for Counts per million (CPM) / Counts per million (CPM) DosR_HC103A1 / Counts per million (CPM) DosR_HC103A2: DosR mutant treated with HC103A; for Counts per million (CPM): replicates 1, 2; for DosR DMSO/DosR HC103A Fold change / log2 Fold change: DosR mutant; for Counts per million (CPM) DosR_HC103A1: replicate 1; for Counts per million (CPM) DosR_HC103A2: replicate 2
[1] = gene MT0169 Rv0l60c PE, HC103A vs DMSO
[2] = gene MT0206 (Rv0196), HC103A compared to DMSO, upregulated
[3] = gene MT0207 (Rv0197), HC103A compared to DMSO, upregulated
[4] = gene MT0273 Rv0260c, HC103A vs DMSO
[5] = gene MT0585 (Rv0559c), HC103A compared to DMSO, upregulated
[6] = gene MT0586 (Rv0560c), HC103A compared to DMSO, upregulated
[7] = gene MT0587 (Rv0561c), HC103A compared to DMSO, upregulated
[8] = gene MT0808 (Rv0784), HC103A compared to DMSO, upregulated
[9] = gene MT0846 Rv0824c desA1, HC103A vs DMSO
[10] = gene MT0908 Rv0885, HC103A vs DMSO
[11] = gene MT0909 Rv0886 fprB, HC103A vs DMSO
[12] = gene MT1214 Rv1177 fdxC, HC103A vs DMSO
[13] = gene MT1297 (Rv1258c), HC103A compared to DMSO, upregulated
[14] = gene MT1430 Rv1386 PE, HC103A vs DMSO
[15] = gene MT1608 (Rv1557, mmpL6), HC103A compared to DMSO, upregulated
[16] = gene MT1690 Rv1652 argC, HC103A vs DMSO
[17] = gene MT1692 Rv1654 argB, HC103A vs DMSO
[18] = gene MT1694 Rv1656 argF, HC103A vs DMSO
[19] = gene MT2466, HC103A compared to DMSO, upregulated
[20] = gene MT2467, HC103A compared to DMSO, upregulated
[21] = gene MT3110 (Rv3026c), HC103A compared to DMSO, upregulated
[22] = gene MT3134 Rv3049c, HC103A vs DMSO
[23] = gene MT3249 (Rv3160c), HC103A compared to DMSO, upregulated
[24] = gene MT3250 (Rv3161c), HC103A compared to DMSO, upregulated
[25] = gene MT3591 (Rv3487c, lipF), HC103A compared to DMSO, upregulated
[26] = gene MT3933 (Rv3825c, pks2), HC103A compared to DMSO, upregulated

## O=C(Nc1cccc(O)c1)c1cccc(NC(=O)c2cccs2)c1 [HC103A, N-[3-[(3 hydroxyphenyl)carbamoyl]phenyl]thiophene-2-carboxamide]
DosRST regulon
  genes downregulated by compound that are also downregulated in the CDC1551(ΔdosR) mutant: 76 genes
CDC1551(ΔdosR) mutant; 40 μM, 6 days, >2-fold, p<0.05
  downregulated genes in CDC1551(ΔdosR) mutant treated with compound: 13 genes
CDC1551(ΔdosR) mutant; gene MT0169 Rv0l60c PE
  Counts per million (CPM): 32.4 CPM and 38.89 CPM
CDC1551(ΔdosR) mutant; [1]
  DosR DMSO/DosR HC103A Fold change: 0.4759
  log2 Fold change: −1.071
CDC1551(ΔdosR) mutant; gene MT0206 (Rv0196)
  Counts per million (CPM) DosR_HC103A1: 286.4 CPM
  Counts per million (CPM) DosR_HC103A2: 309 CPM
CDC1551(ΔdosR) mutant; [2]
  DosR DMSO/DosR HC103A Fold change: 6.59
  log2 Fold change: 2.72
CDC1551(ΔdosR) mutant; gene MT0207 (Rv0197)
  Counts per million (CPM) DosR_HC103A1: 509.4 CPM
  Counts per million (CPM) DosR_HC103A2: 528.3 CPM
CDC1551(ΔdosR) mutant; [3]
  DosR DMSO/DosR HC103A Fold change: 4.134
  log2 Fold change: 2.047
CDC1551(ΔdosR) mutant; gene MT0273 Rv0260c
  Counts per million (CPM): 19.06 CPM and 17.95 CPM
CDC1551(ΔdosR) mutant; [4]
  DosR DMSO/DosR HC103A Fold change: 0.4609
  log2 Fold change: −1.117
CDC1551(ΔdosR) mutant; gene MT0585 (Rv0559c)
  Counts per million (CPM) DosR_HC103A1: 4,246.95 CPM
  Counts per million (CPM) DosR_HC103A2: 5,318.58 CPM
CDC1551(ΔdosR) mutant; [5]
  DosR DMSO/DosR HC103A Fold change: 5.18
  log2 Fold change: 2.373
CDC1551(ΔdosR) mutant; gene MT0586 (Rv0560c)
  Counts per million (CPM) DosR_HC103A1: 8,065.19 CPM
CDC1551(ΔdosR) mutant; [6]
  DosR DMSO/DosR HC103A Fold change: 384.9
  log2 Fold change: 8.588
CDC1551(ΔdosR) mutant; gene MT0587 (Rv0561c)
  Counts per million (CPM) DosR_HC103A1: 66.91 CPM
  Counts per million (CPM) DosR_HC103A2: 74.86 CPM
CDC1551(ΔdosR) mutant; [7]
  DosR DMSO/DosR HC103A Fold change: 2.044
  log2 Fold change: 1.031
CDC1551(ΔdosR) mutant; gene MT0808 (Rv0784)
  Counts per million (CPM) DosR_HC103A1: 242.1 CPM
  Counts per million (CPM) DosR_HC103A2: 193.9 CPM
CDC1551(ΔdosR) mutant; [8]
  DosR DMSO/DosR HC103A Fold change: 2.445
  log2 Fold change: 1.29
CDC1551(ΔdosR) mutant; gene MT0846 Rv0824c desA1
  Counts per million (CPM): 2,264.39 CPM and 5,375.06 CPM
CDC1551(ΔdosR) mutant; [9]
  DosR DMSO/DosR HC103A Fold change: 0.4703
  log2 Fold change: −1.088
CDC1551(ΔdosR) mutant; gene MT0908 Rv0885
  Counts per million (CPM): 2,165.30 CPM and 1,401.92 CPM
CDC1551(ΔdosR) mutant; [10]
  DosR DMSO/DosR HC103A Fold change: 0.3709
  log2 Fold change: −1.431
CDC1551(ΔdosR) mutant; gene MT0909 Rv0886 fprB
  Counts per million (CPM): 412.7 CPM and 231.2 CPM
CDC1551(ΔdosR) mutant; [11]
  DosR DMSO/DosR HC103A Fold change: 0.453
  log2 Fold change: −1.142
CDC1551(ΔdosR) mutant; gene MT1214 Rv1177 fdxC
  Counts per million (CPM): 704.9 CPM and 1,378.70 CPM
CDC1551(ΔdosR) mutant; [12]
  DosR DMSO/DosR HC103A Fold change: 0.4926
  log2 Fold change: −1.021
CDC1551(ΔdosR) mutant; gene MT1297 (Rv1258c)
  Counts per million (CPM) DosR_HC103A1: 106.4 CPM
  Counts per million (CPM) DosR_HC103A2: 137 CPM
CDC1551(ΔdosR) mutant; [13]
  DosR DMSO/DosR HC103A Fold change: 2.269
  log2 Fold change: 1.182
CDC1551(ΔdosR) mutant; gene MT1430 Rv1386 PE
  Counts per million (CPM): 63.3 CPM and 54.49 CPM
CDC1551(ΔdosR) mutant; [14]
  DosR DMSO/DosR HC103A Fold change: 0.4765
  log2 Fold change: −1.069
CDC1551(ΔdosR) mutant; gene MT1608 (Rv1557, mmpL6)
  Counts per million (CPM) DosR_HC103A1: 351.7 CPM
  Counts per million (CPM) DosR_HC103A2: 540 CPM
CDC1551(ΔdosR) mutant; [15]
  DosR DMSO/DosR HC103A Fold change: 6.869
  log2 Fold change: 2.78
CDC1551(ΔdosR) mutant; gene MT1690 Rv1652 argC
  Counts per million (CPM): 130.6 CPM and 56.84 CPM
CDC1551(ΔdosR) mutant; [16]
  DosR DMSO/DosR HC103A Fold change: 0.4979
  log2 Fold change: −1.006
CDC1551(ΔdosR) mutant; gene MT1691
  Counts per million (CPM): 81.47 CPM and 33.33 CPM
CDC1551(ΔdosR) mutant; gene MT1691, HC103A vs DMSO
  DosR DMSO/DosR HC103A Fold change: 0.4846
  log2 Fold change: −1.045
CDC1551(ΔdosR) mutant; gene MT1692 Rv1654 argB
  Counts per million (CPM): 128.8 CPM and 55.27 CPM
CDC1551(ΔdosR) mutant; [17]
  DosR DMSO/DosR HC103A Fold change: 0.4965
  log2 Fold change: −1.01
CDC1551(ΔdosR) mutant; gene MT1694 Rv1656 argF
  Counts per million (CPM): 79.75 CPM and 39.53 CPM
CDC1551(ΔdosR) mutant; [18]
  DosR DMSO/DosR HC103A Fold change: 0.4259
  log2 Fold change: −1.231
CDC1551(ΔdosR) mutant; gene MT2466
  Counts per million (CPM) DosR_HC103A1: 356.4 CPM
  Counts per million (CPM) DosR_HC103A2: 182.6 CPM
CDC1551(ΔdosR) mutant; [19]
  DosR DMSO/DosR HC103A Fold change: 2.643
  log2 Fold change: 1.402
CDC1551(ΔdosR) mutant; gene MT2467
  Counts per million (CPM) DosR_HC103A1: 57.69 CPM
  Counts per million (CPM) DosR_HC103A2: 12.39 CPM
CDC1551(ΔdosR) mutant; [20]
  DosR DMSO/DosR HC103A Fold change: 2.468
  log2 Fold change: 1.303
CDC1551(ΔdosR) mutant; gene MT3110 (Rv3026c)
  Counts per million (CPM) DosR_HC103A1: 44.13 CPM
  Counts per million (CPM) DosR_HC103A2: 30.13 CPM
CDC1551(ΔdosR) mutant; [21]
  DosR DMSO/DosR HC103A Fold change: 2.016
  log2 Fold change: 1.012
CDC1551(ΔdosR) mutant; gene MT3134 Rv3049c
  Counts per million (CPM): 1,202.50 CPM and 892.7 CPM
CDC1551(ΔdosR) mutant; [22]
  DosR DMSO/DosR HC103A Fold change: 0.4226
  log2 Fold change: −1.243
CDC1551(ΔdosR) mutant; gene MT3249 (Rv3160c)
  Counts per million (CPM) DosR_HC103A1: 172.6 CPM
CDC1551(ΔdosR) mutant; [23]
  DosR DMSO/DosR HC103A Fold change: 2.261
  log2 Fold change: 1.177
CDC1551(ΔdosR) mutant; gene MT3250 (Rv3161c)
  Counts per million (CPM) DosR_HC103A1: 561.8 CPM
  Counts per million (CPM) DosR_HC103A2: 555 CPM
CDC1551(ΔdosR) mutant; [24]
  DosR DMSO/DosR HC103A Fold change: 2.364
  log2 Fold change: 1.241
CDC1551(ΔdosR) mutant; gene MT3573.12
  Counts per million (CPM): 281 CPM and 281.6 CPM
CDC1551(ΔdosR) mutant; gene MT3573.12, HC103A vs DMSO
  DosR DMSO/DosR HC103A Fold change: 0.4221
  log2 Fold change: −1.244
CDC1551(ΔdosR) mutant; gene MT3591 (Rv3487c, lipF)
  Counts per million (CPM) DosR_HC103A1: 185.8 CPM
  Counts per million (CPM) DosR_HC103A2: 63.03 CPM
CDC1551(ΔdosR) mutant; [25]
  DosR DMSO/DosR HC103A Fold change: 2.033
  log2 Fold change: 1.023
CDC1551(ΔdosR) mutant; gene MT3933 (Rv3825c, pks2)
  Counts per million (CPM) DosR_HC103A1: 917.6 CPM
  Counts per million (CPM) DosR_HC103A2: 561 CPM
CDC1551(ΔdosR) mutant; [26]
  DosR DMSO/DosR HC103A Fold change: 2.341
  log2 Fold change: 1.227
